The record followed here is ChEMBL document CHEMBL3228035, “Deoxymorphines: role of the phenolic hydroxyl in antinociception and opiate receptor interactions” (J Med Chem, 1979).

In assay [1] the test system is Mus musculus. In words: Antinociceptive activity in sc dosed mouse by hot-plate assay. The assay is classed as functional.
Assay [2] relates to Mus musculus. Description: Antinociceptive activity in sc dosed mouse by Nilsen assay. The assay is classed as functional.

Where a name gives a salt, the structure may show the parent alone.

In general, ED50 refers to the dose that gives a 50% effect, or the effect in half of the subjects. Read a high ED50 as a need for a large dose. For the compound `CN1CC[C@]23CCCC[C@H]2[C@H]1Cc1ccc(O)cc13`, the ED50 with Mus musculus [1] and in the assay with Mus musculus [2] was 0.5 µmol/kg each time. `CN1CC[C@]23c4c5ccc(O)c4O[C@H]2[C@@H](O)C=C[C@H]3[C@H]1C5`: the 50% effective dose (ED50) came out at 3.3 µmol/kg with Mus musculus [1] and 4.1 µmol/kg in the assay with Mus musculus [2]. On to `O[C@H]1CC[C@H]2[C@H]3Cc4cccc5c4[C@@]2(CCN3)[C@H]1O5`, for which the ED50 in the assay with Mus musculus [1] was found to be 45.3 µmol/kg; with Mus musculus [2], 67.8 µmol/kg. Take `CN1CC[C@]23c4c5cccc4O[C@H]2[C@@H](O)CC[C@H]3[C@H]1C5`: the ED50 with Mus musculus [1] was 4.2 µmol/kg; with Mus musculus [2], 8.1 µmol/kg. For `CN1CC[C@]23c4c5cccc4O[C@H]2C(=O)CC[C@H]3[C@H]1C5` the same measures were 1.8 µmol/kg and 2.8 µmol/kg. The matching figures for `C=CCN1CC[C@]23c4c5cccc4O[C@H]2[C@@H](O)CC[C@H]3[C@H]1C5`: 44 µmol/kg and 59.9 µmol/kg. For `c1cc2c3c(c1)O[C@H]1CCC[C@H]4[C@@H](C2)NCC[C@]314` the same measures were 1.3 µmol/kg and 4.4 µmol/kg. With `CN1CC[C@]23c4c5ccc(O)c4O[C@H]2CCC[C@H]3[C@H]1C5`, in the assay with Mus musculus [1], the 50% effect level (ED50) was put at a dose of 0.14 µmol/kg. In the assay with Mus musculus [1], `CN1CC[C@]23c4c5ccc(O)c4O[C@H]2[C@@H](O)CC[C@H]3[C@H]1C5` registered an ED50 of 2.5 µmol/kg. With `CN1CC[C@]23c4c5cccc4O[C@H]2[C@@H](O)C=C[C@H]3[C@H]1C5`, the ED50 in the assay on Mus musculus [1] turned out to be 8.6 µmol/kg; with Mus musculus [2], 30.9 µmol/kg. In the case of `CN1CCC23CCCCC2C1Cc1ccccc13` (racemic), in the assay with Mus musculus [1], it took a dose of 16.5 µmol/kg to reach the 50% effect level (ED50).

On to `CN1CC[C@]23c4c5ccc(O)c4O[C@H]2C(=O)CC[C@H]3[C@H]1C5` [HYDROMORPHONE HYDROCHLORIDE], for which the ED50 is 0.4 µmol/kg in the assay on Mus musculus [1] and 0.7 µmol/kg with Mus musculus [2].

With `C=CCN1CC[C@]23c4c5ccc(O)c4O[C@H]2[C@@H](O)C=C[C@H]3[C@H]1C5` [NALORPHINE HYDROCHLORIDE], the ED50 in the assay on Mus musculus [1] turned out to be 105 µmol/kg; in the assay with Mus musculus [2], 13.8 µmol/kg.
